Results reported in the supplement of paper PMC10307832.

Experiments:
Assay in all cases: relative viability (nuclei count vs DMSO), 5 days (fraction); higher = more cells survive
Dasatinib + Lapatinib = compound: Cc1nc(Nc2ncc(C(=O)Nc3c(C)cccc3Cl)s2)cc(N2CCN(CCO)CC2)n1 [Dasatinib] + CS(=O)(=O)CCNCc1ccc(-c2ccc3ncnc(Nc4ccc(OCc5cccc(F)c5)c(Cl)c4)c3c2)o1 [Lapatinib] (partner 2 µM)
Method in brief: (§1)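 Lung cancer cell lines were seeded in 1536-well plates and dosed by pin tool the next day, with either a single drug or a fixed anchor-drug dose combined with five library-drug doses (not always all listed) spaced in √10 steps. Five days later, one step fixed the cells and stained their nuclei (final 0.05% Triton X-100, 1% formaldehyde, 1 ug/ml Hoechst), and nuclei were counted on 4× images. Relative viability is the nuclei count in treated wells divided by the count in vehicle wells, and each value is the median of duplicate plates.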

XMD13-2 + Navitoclax = compound: C1CC1C(=O)NC2=NNC3=C2C=CC(=C3)C4=CC(=CC=C4)C(=O)NC5CC5 [XMD13-2] + CC1(C)CCC(c2ccc(Cl)cc2)=C(CN2CCN(c3ccc(C(=O)NS(=O)(=O)c4ccc(N[C@H](CCN5CCOCC5)CSc5ccccc5)c(S(=O)(=O)C(F)(F)F)c4)cc3)CC2)C1 [Navitoclax] (partner 0.5 µM)
Method in brief: as §1

XMD13-2 + Tozasertib = compound: C1CC1C(=O)NC2=NNC3=C2C=CC(=C3)C4=CC(=CC=C4)C(=O)NC5CC5 [XMD13-2] + Cc1cc(Nc2cc(N3CCN(C)CC3)nc(Sc3ccc(NC(=O)C4CC4)cc3)n2)n[nH]1 [Tozasertib] (partner 0.1 µM)
Method in brief: as §1

ALW-II-49-7 + Decitabine = compound: Cc1ccc(C(=O)Nc2cccc(C(F)(F)F)c2)cc1Nc1cncc(C(N)=O)c1 [ALW-II-49-7] + Nc1ncn([C@H]2C[C@H](O)[C@@H](CO)O2)c(=O)n1 [Decitabine] (partner 2 µM)
Method in brief: as §1

Cell Line	relative viability (Dasatinib + Lapatinib; first compound 0.005 µM)	relative viability (Dasatinib + Lapatinib; first compound 0.01581 µM)	relative viability (Dasatinib + Lapatinib; first compound 0.05 µM)	relative viability (Dasatinib + Lapatinib; first compound 0.1581 µM)	relative viability (Dasatinib + Lapatinib; first compound 0.5 µM)	relative viability (XMD13-2 + Navitoclax; first compound 0.05 µM)	relative viability (XMD13-2 + Navitoclax; first compound 0.1581 µM)	relative viability (XMD13-2 + Navitoclax; first compound 0.5 µM)	relative viability (XMD13-2 + Navitoclax; first compound 1.581 µM)	relative viability (XMD13-2 + Navitoclax; first compound 5 µM)	relative viability (XMD13-2 + Tozasertib; first compound 0.05 µM)	relative viability (XMD13-2 + Tozasertib; first compound 0.1581 µM)	relative viability (XMD13-2 + Tozasertib; first compound 0.5 µM)	relative viability (XMD13-2 + Tozasertib; first compound 1.581 µM)	relative viability (XMD13-2 + Tozasertib; first compound 5 µM)	relative viability (ALW-II-49-7 + Decitabine; first compound 0.08 µM)	relative viability (ALW-II-49-7 + Decitabine; first compound 0.253 µM)	relative viability (ALW-II-49-7 + Decitabine; first compound 0.8 µM)	relative viability (ALW-II-49-7 + Decitabine; first compound 2.53 µM)	relative viability (ALW-II-49-7 + Decitabine; first compound 8 µM)
NCI-H2085	0.666	0.624	0.417	0.199	0.182	1.25	1.14	1.16	1.18	1.1	0.824	0.806	0.905	0.821	0.754	0.515	0.537	0.48	0.523	0.55
NCI-H2087	1.03	0.839	0.95	1.09	0.605	1.01	1.13	1.02	0.968	0.959	0.264	0.239	0.268	0.223	0.207	0.244	0.254	0.212	0.311	0.203
NCI-H2126	0.748	0.584	0.669	0.525	0.328	0.909	0.867	0.831	0.813	0.845	0.953	0.879	0.81	0.861	0.985	0.604	0.562	0.545	0.587	0.592
NCI-H2170	0.264	0.236	0.271	0.259	0.216	0.761	0.577	0.577	0.569	0.475	0.646	0.737	0.774	0.672	0.719	0.542	0.478	0.5	0.464	0.468
NCI-H2347	0.872	0.951	1.04	0.691	0.386	0.726	0.827	0.919	0.786	0.981	0.559	0.577	0.727	0.487	0.517	0.714	0.647	0.57	0.718	0.681
NCI-H2405	0.684	0.81	0.465	0.222	0.17	0.871	0.727	0.9	0.767	0.916	0.788	0.645	0.801	0.707	0.712	0.699	0.751	0.75	0.685	0.722
NCI-H3122	0.999	1.02	1.02	1.01	0.84	0.996	1.02	1.02	1.01	1.01	0.467	0.395	0.378	0.377	0.373	0.42	0.392	0.585	0.469	0.42
PC-3 [JPC-3]	0.422	0.393	0.444	0.331	0.335	0.819	0.843	0.827	0.781	0.693	0.887	0.911	0.902	0.908	0.874	0.785	0.95	0.771	0.814	0.873
PC-14	0.29	0.282	0.242	0.208	0.0848	0.972	1.1	0.999	0.973	1	0.605	0.657	0.632	0.608	0.562	0.247	0.22	0.218	0.266	0.222
RERF-LC-KJ	0.819	0.758	0.84	0.813	0.809	1.14	1.03	0.674	1	0.733	0.613	0.515	0.59	0.466	0.523	0.694	0.783	0.729	0.732	0.611
SK-LU-1	0.467	0.53	0.424	0.305	0.298	0.915	0.832	0.664	0.803	0.82	0.335	0.338	0.432	0.309	0.323	0.658	0.61	0.489	0.639	0.5
SK-MES-1	0.467	0.482	0.399	0.315	0.258	1.26	1.32	1.21	1.24	1.2	0.998	0.879	0.919	0.804	0.72	0.354	0.35	0.473	0.445	0.398
SW 1573	1.15	0.967	1.01	0.738	0.826	1.54	1.27	0.94	0.876	0.88	0.196	0.167	0.155	0.145	0.354	0.442	0.601	0.654	0.44	0.423
